From patent EP2084544B1, “STABLE STANDARDS FOR BNP IMMUNOASSAYS” (Hytest Ltd., priority 2006, dated 2011)

Assay: Stability of BNP immunoreactivity of antigens incubated in pooled human citrate plasma, measured by sandwich immunofluorometric assay (MAbs 50E1 / 24C5-Eu)
Assay type: in vitro ADME
Source text: Antigens used in the studies. The antigens used in the stability studies included synthetic BNP-32 (Bachem, Bubendorf, Switzerland, cat. no. H-9060.0500), synthetic BNP-32 (Peptide Institute, Osaka, Japan, cat. no. 4212-v), recombinant proBNP (expressed in E. coli, non-glycosylated, from Hytest Ltd., Turku, Finland, 8PRO8), recombinant proBNP (expressed in eukaryotic CHO (Chinese hamster) cells and, thus, glycosylated, as described herein), and recombinant proBNP (expressed in eukaryotic HEK (human) cells and, thus, glycosylated, as described herein).
Antigen solutions. An antigen matrix was prepared by pooling human citrate plasmas collected from healthy donors. Plasma was obtained from 15 healthy volunteers by vein puncture and mixed with 0.11 M sodium citrate tribasic in a ratio of 4:1. The crude serum:citrate was centrifuged for 30 minutes at 2000 rpm. Plasma was decanted, pooled and stored at -70°C until use. Antigen concentrations used in the studies were 6 ng/ml for recombinant proBNP expressed in CHO cells, 20 ng/ml for synthetic BNPs, 20 ng/ml for recombinant proBNP expressed in E. coli and 20 ng/ml for recombinant proBNP expressed in HEK cells. 0.1 % sodium azide was added to plasma as a preservative to prevent bacterial growth.
Incubation at 4°C and 25°C. Antigen solutions in human plasma were incubated for different time periods (up to 96 hours) at 4°C and 25°C. Aliquots were frozen and stored at -70°C until BNP immunoreactivity was measured.
Assays for BNP immunoreactivity. BNP immunoreactivity in the samples was determined by sandwich immunofluorometric assay utilizing two BNP-specific monoclonal antibodies (MAbs). […]
MAb 24C5 specifically recognized and bound to peptide 11-22 of the BNP sequence and was conjugated to stable Eu^3+ chelate using conventional techniques. […] Consequently, it can be used for the quantification of whole BNP immunoreactivity, comprising both BNP and proBNP.

Q: What does the source list for `CC[C@H](C)[C@@H]1NC(=O)[C@H](CCCNC(=N)N)NC(=O)[C@H](CC(=O)O)NC(=O)[C@H](CCSC)NC(=O)[C@H](CCCCN)NC(=O)[C@H](CCCNC(=N)N)NC(=O)CNC(=O)[C@H](Cc2ccccc2)NC(=O)[C@@H](NC(=O)CNC(=O)[C@H](CO)NC(=O)CNC(=O)[C@H](CCC(N)=O)NC(=O)[C@@H](NC(=O)[C@H](CCSC)NC(=O)[C@H](CCCCN)NC(=O)[C@@H]2CCCN2C(=O)[C@@H](N)CO)C(C)C)CSSC[C@@H](C(=O)N[C@@H](CCCCN)C(=O)N[C@H](C(=O)N[C@@H](CC(C)C)C(=O)N[C@@H](CCCN=C(N)N)C(=O)N[C@@H](CCCN=C(N)N)C(=O)N[C@@H](Cc2cnc[nH]2)C(=O)O)C(C)C)NC(=O)CNC(=O)[C@H](CC(C)C)NC(=O)CNC(=O)[C@H](CO)NC(=O)[C@H](CO)NC(=O)[C@H](CO)NC(=O)[C@H](CO)NC1=O` [Synthetic BNP-32]?
A: immunoreactivity detected after incubation (in words) (96 hours of incubation at 4°C): Almost no immunoreactivity; immunoreactivity detected after incubation (in words) (96 hours of incubation at 25°C): Almost no immunoreactivity; stability among the tested protein forms displaying BNP immunoreactivity (rank in words) (incubation up to 96 hours at 4°C and 25°C): worst stability
